Holding throughout (test): NCI-60 cell line screen, 48 h
The subject of assay [1] is A549 NSCLC.
Assay [2] relates to CCRF-CEM leukemia.
In assay [3] the test system is COLO 205 colon.
For assay [4], the system named is HL-60(TB) leukemia.
Assay [5] deals with HOP-62 NSCLC.
In assay [6] the test system is HT29 colon.
Assay [7] deals with K-562 leukemia.
Assay [8] has as its system NCI-H226 lung.
Assay [9] deals with NCI-H522 lung.
In assay [10] the test system is SK-MEL-28 melanoma.
The test system of assay [11] is SNB-19 CNS.
The test system of assay [12] is TK-10 renal.
The subject of assay [13] is HS 578T breast.
For assay [14], the system named is MCF7 breast.

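Assay format: 96-well plates, 48-hour exposure. The concentration for full growth arrest is given as TGI.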

`[N-]=[N+]=NC(c1cn(C2CC(O)C(CO)O2)c(=O)[nH]c1=O)C(Br)Br` (stereo unspecified): the TGI in assay [1], in assay [2], in [3], in assay [4], in assay [5] and in [6] was greater than 100 µM in each case. Also, the TGI in assay [7], in [8], in assay [9], in [10], in [11] and in assay [12] was greater than 100 µM each time.

Regarding `Clc1ccc(C2=NN=C3C(c4ccccc4)=Nc4ccccc4N3C2)cc1`, the TGI in [1] is greater than 100 µM; in assay [2] it was 15.2 µM; in assay [3], greater than 100 µM; in assay [4], 17.6 µM; in assay [5], greater than 100 µM; in assay [13], 31.6 µM. Besides, the TGI was greater than 25.8 µM in assay [6]; greater than 100 µM in assay [7]; greater than 100 µM in [14]; greater than 100 µM in assay [8]; 8.17 µM in assay [9]; greater than 100 µM in [10]. The values for the TGI in assay [11] and in assay [12] were greater than 100 µM and greater than 50.2 µM, respectively.

In the case of `Brc1ccc(C[P+]2(c3ccccc3)CCCCC2)cc1`, the TGI in assay [1] was greater than 100 µM; in assay [2], greater than 100 µM; in assay [3] it was greater than 100 µM; in assay [4], 75.8 µM; in assay [5] it was greater than 100 µM; in assay [6], greater than 100 µM. The TGI in assay [7], in [8], in assay [9], in assay [10], in assay [11] and in [12] was greater than 100 µM throughout.

For `COc1ccc(C(c2c(O)c3ccccc3n(-c3ccccc3)c2=O)c2c(O)c3ccccc3n(-c3ccccc3)c2=O)cc1`, the TGI in assay [1], in assay [2], in assay [3], in assay [5], in assay [7] and in [8] was greater than 100 µM in each case. Moreover, the TGI in assay [9], in assay [10], in assay [11] and in assay [12] was greater than 100 µM each time.

As for `C/C=C(/I)CBr`, the TGI was 66.7 µM in assay [1]; 23.4 µM in [2]; 28.2 µM in assay [3]; 20.5 µM in [4]; 43.4 µM in assay [5]; greater than 100 µM in [7]. The TGI in [8] was determined as 38.5 µM; in assay [9], 4.35 µM; in assay [10], 52.6 µM; in [11] it was 63.5 µM.

Regarding `O=C(NCCN1CCOCC1)c1cn2c(ccc3sc4ccccc4c(=O)c32)n1`, the TGI is greater than 100 µM in assay [1]; greater than 100 µM in [3]; 36.3 µM in assay [4]; greater than 100 µM in [5]; 47.3 µM in [13]; 25.6 µM in [6]. Moreover, the TGI in assay [7], in assay [14], in assay [8], in [9], in assay [10] and in assay [11] was greater than 100 µM each time. In addition, the TGI in assay [12] is greater than 100 µM.

For the molecule `O=C(/C=C/c1ccccc1)CSc1ncn[nH]1`, the TGI in assay [1], in [2], in assay [3], in [4], in assay [5] and in assay [6] was greater than 100 µM each time. Also, the TGI in [7], in assay [14], in assay [8], in assay [9], in assay [10] and in assay [11] was greater than 100 µM in each case. The molecule also registered a TGI in [12] greater than 100 µM.

As for `CN(C(=O)C12C3C4C5C3C1(C(=O)C13C6C7C8C6C1C8C73)C5C42)C(C)(C)C` (stereo unspecified), the TGI in assay [1] was greater than 50 µM; in assay [2], greater than 37.9 µM; in [3] it was greater than 50 µM; in assay [4], greater than 26.9 µM; in assay [5] it was greater than 50 µM; in assay [6], greater than 50 µM. Moreover, the TGI in assay [7] is greater than 47.3 µM; in assay [8] it was greater than 50 µM; in [9] it was greater than 50 µM; in assay [10], greater than 50 µM; in assay [11], greater than 50 µM; in [12], greater than 50 µM.

For the molecule `COc1ccc(N=NC(C(=O)c2ccccc2)C(=O)c2ccccc2)cc1`, the TGI in assay [1] was 75 µM; in assay [2], 58.2 µM; in [3], greater than 100 µM; in [4] it was 32.7 µM; in [5], 68.5 µM; in assay [6], 74 µM. Further, the TGI is greater than 100 µM in assay [7]; 29.9 µM in assay [8]; 45 µM in assay [9]; greater than 100 µM in assay [10]; 80.3 µM in assay [11]; greater than 100 µM in assay [12].

Regarding `N#CN/C(N)=N/C/N=C(\N)NC#N`, the TGI in [1], in assay [2], in [3], in assay [4], in [5] and in [6] was greater than 100 µM each time. The TGI in assay [7], in assay [8], in assay [9], in assay [10], in assay [11] and in assay [12] was greater than 100 µM each time.

For the molecule `CS(=O)(=O)c1nc(-c2cc3c(c(S(C)(=O)=O)n2)CCCC3)cc2c1CCCCC2`, the TGI in assay [1], in [2], in assay [3], in [4], in [5] and in assay [6] was greater than 100 µM in each case. Also, the TGI in [8], in assay [9], in assay [10], in assay [11] and in [12] was greater than 100 µM throughout.

The values above are taken from PubChem BioAssay (NCI).
